Results reported in patent publication US8952024B2, “Herbicidal pyrimidone derivatives” (E I du Pont de Nemours and Company, priority 2009, dated 2015).

Assays:
Assay in all cases: Test B pre-/postemergence plant response
Assay type in all cases: in vivo
[1] = system: Italian ryegrass (Lolium multiflorum); conditions: for Plant response rating, Ryegrass, Italian: Postemergence; for Ryegrass, Italian plant response rating (0 to 100 scale): 62 g ai/ha, postemergence, 0 is no effect, 100 is complete control
Procedure, shortened: (§1)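 Compound in solvent + surfactant applied pre-em (loam/sand) or post-em (plants 2–18 cm, peat medium); greenhouse hold 13–15 days; visual 0–100 control score.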

[2] = system: morningglory (Ipomoea coccinea); conditions: for Plant response rating, Morningglory: Postemergence; for Morningglory plant response rating (0 to 100 scale): 62 g ai/ha, postemergence, 0 is no effect, 100 is complete control
Procedure, shortened: as §1

[3] = system: goosegrass (Eleusine indica); conditions: for Plant response rating, Goosegrass: Postemergence; for Goosegrass plant response rating (0 to 100 scale): 62 g ai/ha, postemergence, 0 is no effect, 100 is complete control
Procedure, shortened: as §1

corn (Zea mays) = conditions: for Plant response rating, Corn: Postemergence; for Corn plant response rating (0 to 100 scale): 62 g ai/ha, postemergence, 0 is no effect, 100 is complete control
Procedure, shortened: as §1

[4] = system: blackgrass (Alopecurus myosuroides); conditions: for Plant response rating, Blackgrass: Postemergence; for Blackgrass plant response rating (0 to 100 scale): 62 g ai/ha, postemergence, 0 is no effect, 100 is complete control
Procedure, shortened: as §1

soybean (Glycine max) = conditions: for Plant response rating, Soybean: Postemergence; for Soybean plant response rating (0 to 100 scale): 62 g ai/ha, postemergence, 0 is no effect, 100 is complete control
Procedure, shortened: as §1

[5] = system: giant foxtail (Setaria faberii); conditions: for Plant response rating, Foxtail, Giant: Postemergence; for Foxtail, Giant plant response rating (0 to 100 scale): 62 g ai/ha, postemergence, 0 is no effect, 100 is complete control
Procedure, shortened: as §1

[6] = system: cocklebur (Xanthium strumarium); conditions: for Plant response rating, Cocklebur: Postemergence; for Cocklebur plant response rating (0 to 100 scale): 62 g ai/ha, postemergence, 0 is no effect, 100 is complete control
Procedure, shortened: as §1

kochia (Kochia scoparia) = conditions: for Plant response rating, Kochia: Postemergence; for Kochia plant response rating (0 to 100 scale): 62 g ai/ha, postemergence, 0 is no effect, 100 is complete control
Procedure, shortened: as §1

[7] = system: large crabgrass (Digitaria sanguinalis); conditions: for Plant response rating, Crabgrass, Large: Postemergence; for Crabgrass, Large plant response rating (0 to 100 scale): 62 g ai/ha, postemergence, 0 is no effect, 100 is complete control
Procedure, shortened: as §1

[8] = system: ragweed (common ragweed, Ambrosia elatior); conditions: for Plant response rating, Ragweed: Postemergence; for Ragweed plant response rating (0 to 100 scale): 62 g ai/ha, postemergence, 0 is no effect, 100 is complete control
Procedure, shortened: as §1

[9] = system: velvetleaf (Abutilon theophrasti); conditions: for Plant response rating, Velvetleaf: Postemergence; for Velvetleaf plant response rating (0 to 100 scale): 62 g ai/ha, postemergence, 0 is no effect, 100 is complete control
Procedure, shortened: as §1

[10] = system: green foxtail (Setaria viridis); conditions: for Plant response rating, Foxtail, Green: Postemergence; for Foxtail, Green plant response rating (0 to 100 scale): 62 g ai/ha, postemergence, 0 is no effect, 100 is complete control
Procedure, shortened: as §1

[11] = system: johnsongrass (Sorghum halepense); conditions: for Plant response rating, Johnsongrass: Postemergence; for Johnsongrass plant response rating (0 to 100 scale): 62 g ai/ha, postemergence, 0 is no effect, 100 is complete control
Procedure, shortened: as §1

[12] = 31 g ai/ha, 0 to 100 scale (0 no effect, 100 complete control)
[13] = 125 g ai/ha, scale 0 to 100 (0 no effect, 100 complete control)
[14] = 250 g ai/ha, scale 0 to 100 (0 no effect, 100 complete control), 13 to 15 days

O=C1CCCC(O)=C1C(=O)c1cnc(-c2ccccc2)n(C2CCCC2)c1=O [Compound 131]
Plant response rating, Ryegrass, Italian ([1]; 16 g ai/ha, 0 to 100 scale): 0 | Ryegrass, Italian plant response rating (0 to 100 scale) ([1]; 13 to 15 days): 0 | Plant response rating, Ryegrass, Italian [1, 12]: 0 | Plant response rating, Ryegrass, Italian [1, 13]: 0 | Plant response rating, Morningglory ([2]; 16 g ai/ha, 0 to 100 scale): 5 | Morningglory plant response rating (0 to 100 scale) ([2]; 13 to 15 days): 70 | Plant response rating, Morningglory [2, 12]: 70 | Plant response rating, Morningglory [2, 13]: 75 | Plant response rating, Goosegrass ([3]; 16 g ai/ha, 0 to 100 scale): 65 | Goosegrass plant response rating (0 to 100 scale) ([3]; 13 to 15 days): 65 | Plant response rating, Goosegrass [3, 12]: 65 | Plant response rating, Goosegrass [3, 13]: 75 | Plant response rating, Corn (corn (Zea mays); 16 g ai/ha, 0 to 100 scale): 0 | Corn plant response rating (0 to 100 scale) (corn (Zea mays); 13 to 15 days): 10 | Plant response rating, Corn (corn (Zea mays); [12]): 0 | Plant response rating, Corn (corn (Zea mays); [13]): 20 | Plant response rating, Blackgrass ([4]; 16 g ai/ha, 0 to 100 scale): 0 | Blackgrass plant response rating (0 to 100 scale) ([4]; 13 to 15 days): 0 | Plant response rating, Blackgrass [4, 12]: 0 | Plant response rating, Blackgrass [4, 13]: 0 | Plant response rating, Soybean (soybean (Glycine max); 16 g ai/ha, 0 to 100 scale): 75 | Soybean plant response rating (0 to 100 scale) (soybean (Glycine max); 13 to 15 days): 95 | Plant response rating, Soybean (soybean (Glycine max); [12]): 75 | Plant response rating, Soybean (soybean (Glycine max); [13]): 98 | Plant response rating, Foxtail, Giant ([5]; 16 g ai/ha, 0 to 100 scale): 65 | Foxtail, Giant plant response rating (0 to 100 scale) ([5]; 13 to 15 days): 75 | Plant response rating, Foxtail, Giant [5, 12]: 75 | Plant response rating, Foxtail, Giant [5, 13]: 80 | Plant response rating, Cocklebur ([6]; 16 g ai/ha, 0 to 100 scale): 80 | Cocklebur plant response rating (0 to 100 scale) ([6]; 13 to 15 days): 98 | Plant response rating, Cocklebur [6, 12]: 95 | Plant response rating, Cocklebur [6, 13]: 100 | Plant response rating, Kochia (kochia (Kochia scoparia); 16 g ai/ha, 0 to 100 scale): 20 | Kochia plant response rating (0 to 100 scale) (kochia (Kochia scoparia); 13 to 15 days): 60 | Plant response rating, Kochia (kochia (Kochia scoparia); [12]): 35 | Plant response rating, Kochia (kochia (Kochia scoparia); [13]): 75 | Plant response rating, Crabgrass, Large ([7]; 16 g ai/ha, 0 to 100 scale): 65 | Crabgrass, Large plant response rating (0 to 100 scale) ([7]; 13 to 15 days): 75 | Plant response rating, Crabgrass, Large [7, 12]: 75 | Plant response rating, Crabgrass, Large [7, 13]: 80 | Plant response rating, Ragweed ([8]; 16 g ai/ha, 0 to 100 scale): 65 | Ragweed plant response rating (0 to 100 scale) ([8]; 13 to 15 days): 85 | Plant response rating, Ragweed [8, 12]: 80 | Plant response rating, Ragweed [8, 13]: 95 | Plant response rating, Velvetleaf ([9]; 16 g ai/ha, 0 to 100 scale): 70 | Velvetleaf plant response rating (0 to 100 scale) ([9]; 13 to 15 days): 85 | Plant response rating, Velvetleaf [9, 12]: 80 | Plant response rating, Velvetleaf [9, 13]: 98 | Plant response rating, Foxtail, Green ([10]; 16 g ai/ha, 0 to 100 scale): 40 | Foxtail, Green plant response rating (0 to 100 scale) ([10]; 13 to 15 days): 90 | Plant response rating, Foxtail, Green [10, 12]: 70 | Plant response rating, Foxtail, Green [10, 13]: 95 | Plant response rating, Johnsongrass ([11]; 16 g ai/ha, 0 to 100 scale): 0 | Johnsongrass plant response rating (0 to 100 scale) ([11]; 13 to 15 days): 25 | Plant response rating, Johnsongrass [11, 12]: 5 | Plant response rating, Johnsongrass [11, 13]: 50

COCCCn1c(-c2cccc(Br)c2)ncc(C(=O)C2=C(O)CCCC2=O)c1=O [Compound 140]
Ryegrass, Italian plant response rating (0 to 100 scale) ([1]; 13 to 15 days): 0 | Plant response rating, Ryegrass, Italian [1, 12]: 0 | Plant response rating, Ryegrass, Italian [1, 13]: 0 | Plant response rating, Ryegrass, Italian [1, 14]: 5 | Morningglory plant response rating (0 to 100 scale) ([2]; 13 to 15 days): 60 | Plant response rating, Morningglory [2, 12]: 0 | Plant response rating, Morningglory [2, 13]: 65 | Plant response rating, Morningglory [2, 14]: 65 | Goosegrass plant response rating (0 to 100 scale) ([3]; 13 to 15 days): 65 | Plant response rating, Goosegrass [3, 12]: 45 | Plant response rating, Goosegrass [3, 13]: 70 | Plant response rating, Goosegrass [3, 14]: 85 | Corn plant response rating (0 to 100 scale) (corn (Zea mays); 13 to 15 days): 5 | Plant response rating, Corn (corn (Zea mays); [12]): 0 | Plant response rating, Corn (corn (Zea mays); [13]): 25 | Plant response rating, Corn (corn (Zea mays); [14]): 45 | Blackgrass plant response rating (0 to 100 scale) ([4]; 13 to 15 days): 0 | Plant response rating, Blackgrass [4, 12]: 0 | Plant response rating, Blackgrass [4, 13]: 5 | Plant response rating, Blackgrass [4, 14]: 5 | Soybean plant response rating (0 to 100 scale) (soybean (Glycine max); 13 to 15 days): 60 | Plant response rating, Soybean (soybean (Glycine max); [12]): 10 | Plant response rating, Soybean (soybean (Glycine max); [13]): 75 | Plant response rating, Soybean (soybean (Glycine max); [14]): 80 | Foxtail, Giant plant response rating (0 to 100 scale) ([5]; 13 to 15 days): 75 | Plant response rating, Foxtail, Giant [5, 12]: 65 | Plant response rating, Foxtail, Giant [5, 13]: 80 | Plant response rating, Foxtail, Giant [5, 14]: 90 | Cocklebur plant response rating (0 to 100 scale) ([6]; 13 to 15 days): 15 | Plant response rating, Cocklebur [6, 12]: 0 | Plant response rating, Cocklebur [6, 13]: 65 | Plant response rating, Cocklebur [6, 14]: 95 | Kochia plant response rating (0 to 100 scale) (kochia (Kochia scoparia); 13 to 15 days): 10 | Plant response rating, Kochia (kochia (Kochia scoparia); [12]): 0 | Plant response rating, Kochia (kochia (Kochia scoparia); [13]): 10 | Plant response rating, Kochia (kochia (Kochia scoparia); [14]): 35 | Crabgrass, Large plant response rating (0 to 100 scale) ([7]; 13 to 15 days): 65 | Plant response rating, Crabgrass, Large [7, 12]: 50 | Plant response rating, Crabgrass, Large [7, 13]: 80 | Plant response rating, Crabgrass, Large [7, 14]: 90 | Ragweed plant response rating (0 to 100 scale) ([8]; 13 to 15 days): 45 | Plant response rating, Ragweed [8, 12]: 25 | Plant response rating, Ragweed [8, 13]: 65 | Plant response rating, Ragweed [8, 14]: 75 | Velvetleaf plant response rating (0 to 100 scale) ([9]; 13 to 15 days): 65 | Plant response rating, Velvetleaf [9, 12]: 50 | Plant response rating, Velvetleaf [9, 13]: 80 | Plant response rating, Velvetleaf [9, 14]: 85 | Foxtail, Green plant response rating (0 to 100 scale) ([10]; 13 to 15 days): 60 | Plant response rating, Foxtail, Green [10, 12]: 45 | Plant response rating, Foxtail, Green [10, 13]: 85 | Plant response rating, Foxtail, Green [10, 14]: 95 | Johnsongrass plant response rating (0 to 100 scale) ([11]; 13 to 15 days): 15 | Plant response rating, Johnsongrass [11, 12]: 10 | Plant response rating, Johnsongrass [11, 13]: 35 | Plant response rating, Johnsongrass [11, 14]: 45
